From patent US20120093947A1, “METHOD OF TREATING REACTIVE AIRWAY DISEASE” (UNITED STATES DEPARTMENT OF VETERANS AFFAIRS, priority 2009, published 2012)
Structures can show the parent of a compound that is named as a salt. Blank lines part the entries; values can stand above or below the molecule they belong to.

How the values were obtained:
[1] = human
Method: Exhaled breath condensate (“EBC”) samples. EBC samples are collected during 10 min of quiet breathing through a single-use disposable RTube collector (Respiratory Research, Inc., Charlottesville, Va., USA) while subjects are wearing a nose clip. The aluminum sleeve of the device is cooled to an initial temperature of −20° C. prior to collection. After collection, a plunger is used to pool the condensed material within the tube into a single sample (about 1.0 ml). Samples are stored in the reaction tube at a temperature of −80° C. until thawed and processed for analysis.
Mass Spectrometry. The experiment is performed on a Thermo Fisher Scientific LTQ-FT, a hybrid instrument consisting of a linear ion trap and a Fourier transform ion cyclotron resonance mass spectrometer. Liquid chromatography separation of the sample components utilizes a Waters XBridge™ C18 3.5 μm 2.1×100 mm column, Finnigan Surveyor MS pump, and Finnigan Micro AS autosampler. A 200 μL/min gradient elution of water and acetonitrile, both containing 0.1% formic acid, occurs as follows: 5% to 32% acetonitrile in first eight minutes followed by a rapid rise to 95% acetonitrile within the next minute, held at 95% for an additional seven minutes. […]

MPO [2] = target: T1, MPO (Homo sapiens, UniProt P05164); assay: EPR of ascorbate radicals during oxidation of β2-agonists by MPO/H2O2; format: biochemical; set-up: Myeloperoxidase (MPO) from human leucocytes (lyophilized powder); purchased Axxora, LLC (San Diego, Calif.); host or cells: human leucocytes (natural source); details: 100 μM ascorbate, MPO 0.01 U/250 μL, H2O2 39 μM, pH 7.0
Method: (§1) The sample is transferred to a flat aqueous EPR cell and recording is started one minute after initiation of the reaction. The spectra of DMPO adducts are recorded using the same parameters as above but the sweeping rate is 8 mT/41.92 s. The EPR spectra of ascorbate radicals are obtained using microwave power 5 mW, modulation amplitude 0.05 mT, scan rate 4 mT/41.92 s. EPR spectra shown are an average of 5 scans and represent results of a typical experiment.
Formation of Asc^•− during oxidation of β2-agonists by MPO/H2O2 in the presence of 100 μM AscH^− is investigated by EPR. […] Spectrum A is the EPR of 100 μM ascorbate without additives. Sprectrun B is the EPR spectrum of 100 μM ascorbate in the presence of MPO (0.01 U/250 μL) and H2O2 (39 μM). Spectra C and D are the EPR spectra of 100 μM ascorbate in the presence of MPO (0.01 U/250 μ), H2O2 (39 μM), and 40 μM and 100 μM of salbutamol, respectily. Spectrum E is the EPR spectrum of 100 μM ascorbate in the presence of MPO (0.01 U/250 μL), H2O2 (39 μM) and 20 μM of fenoterol. All reactions occur in pH 7.0 buffer (50 mM) containing DTPA (0.2 mM).

[3] = tested on: murine airway smooth muscle cells; assay: cAMP production in airway smooth muscle cells, fluorescent detection assay; format: cell-based; details: 15 minutes, read-out: EC50, stimulation of cAMP synthesis
Method: For these studies, cells are grown to near-confluence in 96-well plates. After washing with PBS, cells were treated for 15 minutes with either PBS vehicle or the indicated concentration of isoproterenol. The reaction is then halted using the supplied stop buffer, after which the resultant sample is processed for fluorescent detection per the manufacturer's instructions. The cAMP content for each sample is determined by extrapolating values to a standard curve prepared with known concentrations of cAMP.

MPO [4] = target: T1, MPO; assay: Oxidation of β2-agonists by MPO/H2O2, spectrophotometric ΔA315; format: biochemical; set-up: Myeloperoxidase (MPO) from human leucocytes (lyophilized powder); purchased Axxora, LLC (San Diego, Calif.); host or cells: human leucocytes (natural source); details: 100 μM AscH−, 200 mU/mL MPO, 50 μM H2O2
Method: Spectrophotometric Measurements. Spectra are measured using an Agilent diode array spectrophotometer model 8453 (Agilent Technologies, Inc., Santa Clara, Calif.). Oxidation of β2-agonists is studied by measuring absorption spectra at designated time points following reaction starts. Samples are prepared in 50 mM acetate buffer (pH 5.0), 50 and 100 mM phosphate buffers (pH 7.0 and 8.0) and 100 mM Tris/HCl (pH 9.19). All buffers contain DTPA (100 and 200 μM) and measurements are performed at an ambient temperature of 20° C. The reaction is started by the addition of a small aliquot of H2O2 (2, 5 or 10 μL), or glucose oxidase (1 μL), if glucose/glucose oxidase was used to generate H2O2, to a sample containing a studied compound, peroxidase and, if required, an inhibiting co-factor. Time course measurements are carried out following changes in absorbance at 315 nm in 15 second intervals versus absorbance at 800 nm, where none of the compounds absorb. The 315 nm wavelength is chosen because β2-agonists' oxidation products absorb intensely near 315 nm, and because it is close to the absorption maximum of tyrosine dimers.
The concentration of AscH^− in airway fluid was estimated to be near 100 μM (Id.), so we use concentrations within this physiological range. […] AscH^− affects oxidation of salbutamol and fenoterol similarly, causing delay in the net oxidation of both drugs. A315 increases after a lag period, the duration of which depends on AscH^− concentration. Net oxidation of the drugs occurs only when AscH^− is consumed. […] This is understandable given that the concentration of H2O2 was only 50 μM and the peroxide was used to oxidize both the drugs and AscH^−. […] The proposed mechanisms of inhibition are reactions A and B, shown below, which reveal that recovery of the drug occurs at the expense of AscH^−, which is oxidized to the ascorbate radical (A^•−).
[…]. The extent of oxidation is expressed as ΔA315±SE versus control (in %) during 22 minutes of reaction at 20° C. Values are the mean of at least duplicate determinations.

LPO = target: T2, LPO (Bos taurus, UniProt P80025); assay: Nitration of salbutamol by LPO/H2O2/NO2−, A410; format: biochemical, bovine; details: 100 μM salbutamol, 67 nM LPO, 4 mM H2O2, 3.5 mM NaNO2
T2 construct: Lactoperoxidase (LPO) from bovine milk (EC 1.11.1.7); purchased Sigma-Aldrich Co. (St. Louis, Mo.); host or cells: bovine milk (natural source)
Method: Spectrophotometric Measurements. Spectra are measured using an Agilent diode array spectrophotometer model 8453 (Agilent Technologies, Inc., Santa Clara, Calif.). Nitration of salbutamol is studied by measuring absorption spectra at designated time points following the start of the reaction. Samples are prepared in 100 mM phosphate buffers (pH 7.0). All buffers contained DTPA (100 μM) or are pretreated with Chelex-100 before use, and measurements are performed at ambient temperature of 20° C. Typically, the reaction is started by the addition of a small aliquot of H2O2 or the desired peroxidase. Time course measurements are carried out following changes in absorbance at 410 nm in 30 second intervals versus absorbance at 800 nm, where none of the compounds absorb.
Ascorbate (AscH^−) is an effective natural antioxidant protecting airways from oxidative injury. Cross et al., (1994) Environ. Health Perspect. 102 (suppl. 10):185-191. Its concentration in the respiratory tract lining fluid is estimated to be near 100 μM (Id.). We examine the effect of AscH^− on nitration of 100 μM salbutamol by 67 nM LPO, 4 mM H2O2, and 3.5 mM of NaNO2 by measuring absorption at 410 nm. […] The duration of the lag period depends on AscH^− concentration. […] See, e.g., Reszka et al. (1999) Free Radic. Biol. & Med. 26:669-678.
As noted earlier, methimazole is an antithyroid drug, an effective inhibitor of LPO activity. 100 μM of salbutamol is reacted with 73 nM LPO, 3.5 mM NaNO2, and 4 mM H2O2 at pH buffer 7.0 in the presence of 0, 27, 55, and 109 μM methimazole (shown in FIG. 9, section A, traces a-d, respectively). Traces c and d also indicate by arrow when additional LPO is added to the system. […] In contrast to effects exerted by AscH^− or SCN^−, methimazole-dependent inhibition is permanent and is probably due to inactivation of the enzyme, since a second dose of LPO reactivates the process (FIG. 9, section A, trace c).
Dapsone, an anti-inflammatory and anti-leprotic agent, is a potent inhibitor of LPO and MPO. See, e.g., Kettle et al. (1991) Biochem. Pharmacol. 41(10):1485-1492; Bozeman et al. (1992) Biochem. Pharmacol. 44(2):553-563. 97 μM of salbutamol is reacted with 65 nM LPO, 3.4 mM NaNO2, and 4 mM H2O2 at pH buffer 7.0 in the presence of 0, 2.5, 5, 10, 50, and 100 μM dapsone (shown in FIG. 10, traces a-f, respectively). The arrows in traces d and e of FIG. 10 indicate where additional LPO is added to the system. […] Dapsone at 50 μM inhibited nitration by approximately 86%. Given the high concentrations of NaNO2 and H2O2 used in this system, dapsone appears to be a potent blocker of nitration.
The extent of nitration is expressed as a change in ΔA410 versus control (dapsone omitted) taken as 100% after 10, 30, and 60 minute reactions for LPO, MPO, and EPO nitrating systems, respectively. Results equal the means±SE of at least two measurements. In the LPO system, 100 μM of salbutamol, 3.4 mM of NaNO2, 4 mM of H2O2, and 65 nM of LPO is used. In the MPO system, 50 μM of salbutamol, 5.0 mM of NaNO2, 5 mM of H2O2, and 0.2 U/mL of MPO is used. In the EPO system, 50 μM of salbutamol, 5 mM of NaNO2, 2 mM of H2O2, and 0.075 U/mL of EPO is used. All reactions were carried out in pH 7.0 phosphate buffer containing DMSO (5% v/v). The term “nitrophenols” includes nitrosalbutamol (N-Sal) and salbutamol-derived nitrophenol (N—ArOH).

MPO [5] = target: T1, MPO; assay: EPR spin trapping of GS radicals (DMPO/SG adduct) with MPO/H2O2; format: biochemical; set-up: Myeloperoxidase (MPO) from human leucocytes (lyophilized powder); purchased Axxora, LLC (San Diego, Calif.); details: 2 μM fenoterol, 4 mM GSH, 18 mM DMPO, pH 7.0
Method: as §1
Spectrum e is the same reaction as spectrum d with the exception that no GSH is used.
The EPR spectrum generated in the presence of 2 μM fenoterol (FIG. 3, section B, spectrum a) is approximately a two-fold more intense than that observed in the presence of 80 μM salbutamol (FIG. 3, section A, spectrum b). This confirms the higher reactivity of a metabolite(s) derived from fenoterol. […] The higher stimulatory action of fenoterol, when compared to that of salbutamol, implies that the compound's resorcinol moiety may play a dominating role in the interaction with GSH. The proposed cycle of redox reactions involving fenoterol, AscH^− and GSH is depicted in reaction B, presented earlier.

T1 sequence (P05164 279-745 limits assumed): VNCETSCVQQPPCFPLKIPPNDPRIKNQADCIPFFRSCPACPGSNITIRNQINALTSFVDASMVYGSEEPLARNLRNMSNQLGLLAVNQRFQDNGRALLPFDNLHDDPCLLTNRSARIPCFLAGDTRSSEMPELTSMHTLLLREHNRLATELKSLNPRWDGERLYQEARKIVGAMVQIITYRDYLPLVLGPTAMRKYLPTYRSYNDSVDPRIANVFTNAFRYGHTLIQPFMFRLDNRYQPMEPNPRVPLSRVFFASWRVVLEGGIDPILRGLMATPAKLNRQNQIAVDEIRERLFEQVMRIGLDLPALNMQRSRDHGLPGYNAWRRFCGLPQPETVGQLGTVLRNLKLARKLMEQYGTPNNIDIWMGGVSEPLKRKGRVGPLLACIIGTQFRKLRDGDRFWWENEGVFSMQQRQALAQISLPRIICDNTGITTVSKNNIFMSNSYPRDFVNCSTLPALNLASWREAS
T1 sequence (P05164 165-273 limits assumed): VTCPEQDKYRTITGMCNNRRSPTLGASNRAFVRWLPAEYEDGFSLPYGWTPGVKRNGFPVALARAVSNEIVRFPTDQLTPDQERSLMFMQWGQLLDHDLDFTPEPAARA

Salbutamol transformation in vivo (nitrophenol of m/z 255.13 in breath condensate) [1]: undergoes oxidation and nitration
EPR spectrum of ascorbate radical, more intense than with MPO/H2O2 alone (MPO [2]; 40 μM salbutamol): approximately 76%
EPR spectrum of ascorbate radical, more intense than with MPO/H2O2 alone (MPO [2]; 100 μM salbutamol): ~117%
EC50 [3]: 0.0248 µM
Molecule: Salbutamol hemisulfate

Oxidation of fenoterol by MPO/H2O2 (A315 versus time) (MPO [4]; 200 μM fenoterol): completely inhibited
Oxidation of salbutamol by MPO/H2O2 (A315 versus time) (MPO [4]; 1 mM salbutamol): completely inhibited
Nitration of salbutamol by LPO/H2O2/NO2− (A410 versus time) (LPO; AscH− at near physiological concentrations (55, 88, 109 μM)): only transiently inhibits
Nitration of salbutamol by LPO/H2O2/NO2− (A410 versus time) (LPO; ascorbate ˜1 mM): completely prevents
Molecule: O=C1O[C@H]([C@@H](O)CO)C(O)=C1O [AscH^−, ascorbic acid]

Molecule: CC(Cc1ccc(O)cc1)NCC(O)c1cc(O)cc(O)c1 (stereo not shown) [fenoterol, fenoterol hydrobromide]
EPR spectrum of DMPO/SG adduct, intensity relative to 80 μM salbutamol (MPO [5]): two-fold
EPR spectrum of ascorbate radical, more intense than with MPO/H2O2 alone (MPO [2]; 20 μM fenoterol): 270%
